Reference: patent US20050059719A1 (priority 2003, published 2005)

Conditions: pH 5.5
Protocol: The fraction of the dose precipitating in the form of free base during dissolution is dependent on experimental factors such as stirring speed, which determines mixing kinetics of the highly supersaturated microenvironment solution into the bulk of the dissolution medium.
The dissolution studies were conducted using USP apparatus 2 in acetate buffer, pH 5.5 and 37° C.
The pH of the dissolution medium remained substantially constant at ˜5.5 until the end of the test.

Structure (SMILES): CN(C)Cc1nccn1-c1ccc(NC(=O)c2cc(C(F)(F)F)nn2-c2ccc3onc(N)c3c2)c(F)c1.Cl [Factor Xa inhibitor]
- concentration in the dissolution medium relative to saturation solubility at this pH: ~10 fold
